From patent US7732429B2 (Trustees of Tufts College, priority 1994, dated 2010)

Tests used:
efflux protein = target: T1, efflux protein (Escherichia coli, UniProt P02980); experiment: everted membrane vesicle assay, blocking activity of 13-S-derivatives; type: biochemical; conditions: blocking activity against the efflux protein, everted membrane vesicle assay
T1 sequence (P02980 1-401): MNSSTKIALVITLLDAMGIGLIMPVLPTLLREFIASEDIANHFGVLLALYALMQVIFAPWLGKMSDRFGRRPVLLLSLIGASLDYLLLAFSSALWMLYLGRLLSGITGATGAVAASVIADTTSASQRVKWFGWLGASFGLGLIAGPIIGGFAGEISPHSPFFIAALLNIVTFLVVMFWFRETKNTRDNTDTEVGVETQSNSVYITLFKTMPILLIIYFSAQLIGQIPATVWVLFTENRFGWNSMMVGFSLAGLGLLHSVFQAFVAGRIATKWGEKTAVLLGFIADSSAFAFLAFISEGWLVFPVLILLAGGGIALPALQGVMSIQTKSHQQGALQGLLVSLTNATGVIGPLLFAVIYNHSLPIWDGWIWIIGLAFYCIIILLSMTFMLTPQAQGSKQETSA

[1] = system: E. coli Tc^s (MI 308-226); experiment: susceptibility testing MIC/MLC, drug alone; type: cell-based; conditions: Tc^s (MI 308-226), drug alone; for MLC: kills 99.9%
[2] = system: E. coli Class A Tc^r (DI-299); type: cell-based; conditions: drug alone; for MLC: kills 99.9%
[3] = system: E. coli Class B Tc^r (DI-209); type: cell-based; conditions: drug alone; for MLC: kills 99.9%
[4] = system: E. faecalis Tc^s (ATCC9790r); experiment: susceptibility testing MIC/MLC, drug alone; type: cell-based
[5] = system: E. faecalis Tc^r (L) ATCC9790r/Tell.); experiment: susceptibility testing MIC/MLC, drug alone; type: cell-based; conditions: Tc^r (L) ATCC9790r/Tell.), drug alone
[6] = system: E. faecalis Tc^r(M) (ATCC09790r/TelM); type: cell-based; conditions: drug alone

SMILES	Ki (efflux protein)	MIC [1] [µg]	MLC [1] [µg]	MIC [2] [µg]	MLC [2] [µg]	MIC [3] [µg]	MLC [3] [µg]	MIC [4] [µg]	MIC [5] [µg]	MIC [6] [µg]
CN(C)C1C(O)=C(C(N)=O)C(=O)C2(O)C(O)=C3C(=O)c4c(O)cccc4C(C)(O)C3CC12 (stereo not shown) [Tetracycline, 4-(Dimethylamino)-1,4,4a,5,5a,6-11,12a-octahydro-3,6,10,12,12a-pentahydroxy-6-methyl-1-11-dioxo-2-naphthacenecarboxamide, reference compound]	9000 to 18000 nM	0.6 ± 0.26	40 ± 0.26	150 ± 0.25	200	>200	>200	0.25	90 ± 10	100
CN(C)C1C(O)=C(C(N)=O)C(=O)C2(O)C(O)=C3C(=O)c4c(O)cccc4C(CSC(C)(C)C)C3C(O)C12 (stereo not shown) [t-Butyl]	0.3 µg/mL									
CC(C)SCC1c2cccc(O)c2C(=O)C2=C(O)C3(O)C(=O)C(C(N)=O)=C(O)C(N(C)C)C3C(O)C21 (stereo not shown) [Isopropyl]	771 nM	22 ± 2	50	45 ± 6	60	35 ± 6	46 ± 16	3 ± 1	3 ± 1	
CCCCCCCCCCSCC1c2cccc(O)c2C(=O)C2=C(O)C3(O)C(=O)C(C(N)=O)=C(O)C(N(C)C)C3C(O)C21 (stereo not shown) [Decyl]	8.0 µg/mL									
CN(C)c1ccc(O)c2c1C[C@H]1C[C@H]3[C@H](N(C)C)C(=O)C(C(N)=O)=C(O)[C@@]3(O)C(=O)C1=C2O [Minocycline, reference compound]		<4	<4	<4	20	6 ± 2	30 ± 10	<0.25	<0.25	10
CC(C)CSCC1c2cccc(O)c2C(=O)C2=C(O)C3(O)C(=O)C(C(N)=O)=C(O)C(N(C)C)C3C(O)C21 (stereo not shown) [Isobutyl]	188 nM									
